{"source": "paper PMC6014988", "about": "“Precision therapeutic targeting of human cancer cell motility” (Nature Communications, 2018)", "key": {"[1]": {"test": "Three-day MTT cell growth inhibition assay, 1532CPTX", "format": "cell-based, human", "conditions": "human, 1532CPTX cells"}, "1532CPTX": {"tested_on": "1532CPTX", "test": "Three-day MTT cell growth inhibition assay, 1532CPTX", "format": "cell-based, human", "conditions": "Homo sapiens, 72 h, 3 days"}, "[2]": {"tested_on": "human breast cancer LM2-4H2N cells", "test": "Breast cancer orthotopic implantation and resection survival model", "format": "in vivo, mouse", "conditions": "25 mg/kg oral gavage five times per week, post-surgery adjuvant setting", "protocol": "Breast cancer: orthotopic implantation: Orthotopic implantation of 2 × 10^6 dTomato-LM2-4H2N cells in matrigel:PBS human breast cancer cells into 5–6 week old female SCID-Beige mice (Taconic), followed by resection of resultant primary tumor, provides a model wherein survival is dictated by metastatic burden, and was performed as described. KBU2046 treatment by oral gavage 5 days per week began 4 weeks after resection, with weekly IVIS imaging. Animals were excluded from the analysis if they died and/or met the criteria for euthanasia in the 7 day post-operative period. Experimental groups were randomly assigned based upon size of primary tumor before treatment, in and manner that ensured equal distribution of tumor sizes across treatment groups."}, "MKK4": {"target": "T1, MKK4 (Homo sapiens, UniProt P45985, S257E/T261E)", "T1 construct": "made in house; host or cells: KRX E. coli", "T1 sequence (P45985 37-399 S257E/T261E)": "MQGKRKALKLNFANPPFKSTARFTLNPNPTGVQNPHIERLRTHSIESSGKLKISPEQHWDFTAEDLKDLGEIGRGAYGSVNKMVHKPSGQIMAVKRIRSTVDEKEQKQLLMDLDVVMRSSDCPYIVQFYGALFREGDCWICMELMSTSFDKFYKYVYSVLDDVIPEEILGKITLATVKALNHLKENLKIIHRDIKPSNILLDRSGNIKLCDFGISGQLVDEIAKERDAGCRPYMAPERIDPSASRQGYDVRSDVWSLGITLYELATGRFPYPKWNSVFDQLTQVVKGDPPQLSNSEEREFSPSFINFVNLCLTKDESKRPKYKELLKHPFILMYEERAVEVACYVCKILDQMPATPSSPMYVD", "test": "Fluorescence-based thermal shift assay, MKK4", "format": "binding", "protocol": "(§1) Fluorescent thermal shift, isothermal titration calorimetry, and biolayer interferometry assays[46] were all performed as described by us using MEK4EE (37-399, S257E, T261E) cloned into pMCSG7 and KRX Competent E. coli cells (Promega Inc.) and above denoted full-length HSP90B and CDC37 vectors and Rosetta BL-21 and BL-21 DE-3 competent E. coli cells, respectively. DARTS assays were conducted as described, using equimolar amounts of CDC37 and HSP90β, thermolysin digestion, and silver stain visualization (ProteoSilver Silver Stain Kit, Sigma-Aldrich).\n(§2) Supplementary Figure 9. […] (a) Depiction of […]\n(§3) established MKK4 pathway regulating human PCa cell metastasis. […]\n(§4) to MKK4, as measured by fluorescence-based thermal shift assay. Values are the mean±SD (of N=2 replicates) increase in melting temperature (ΔTm) of purified recombinant MKK4 induced by the indicated concentrations of KBU2046 or genistein. […]\n(§5) in an in vitro kinase assay. The indicated concentrations of KBU2046 were added to recombinant activated MKK4, and its ability to phosphorylate kinase dead p38α MAPK (K53A) was measured by Western blot for total (p38 MAPK) and phosphorylated (pp38 MAPK) forms of […]\nHSP27 in cells. PC3-M cells were pre-treated for 24 hours with 50 µM KBU2046 or genistein, as indicated, then with TGFβ, and Western blot performed. […]"}, "[3]": {"tested_on": "p38 MAPK and HSP27 phosphorylation", "test": "Phosphorylation of p38 MAPK and HSP27 in PC3-M cells, Western blot", "format": "cell-based, human", "conditions": "50 µM, 24 hours, then TGFβ", "protocol": "as §2, §3, §4, §5\nHSP27 in cells. PC3-M cells were pre-treated for 24 hours with 50 µM KBU2046 or genistein, as indicated, then with TGFβ, and Western blot performed. All findings are from a single experiment, with similar findings in identical separate experiments, repeated at least once. […]"}, "200 different kinases": {"tested_on": "200 different kinases", "test": "Kinex kinase assay system", "format": "biochemical, human", "conditions": "1 and 10 μM; 10 μM interfered with readout", "source_text": "There were two initial false positives (for a false positive rate of 0.4%), that were subsequently found to be negative in a dedicated follow up analysis. Specific and important negative findings include MKK4, p38 MAPK (α, β, γ and δ […]\nby competing for phospho-acceptor binding.\nKinase assay system #2. The Kinex™ kinase assay system (Kinexus Proteomics Company).\nThis platform uses recombinant human protein kinases expressed in an insect expression system, thus allowing an avenue for post-translational modification. Also, this platform measures inhibition of ATP binding. This platform putatively measured 200 different kinases, and we […]\ntested KBU2046 at 1 and 10 μM. […] There were two […]\nimportant technical issues. First, at 10 μM KBU2046 interfered with the colorimetric-based […]\nHowever, while considering the above factors, this screen was informative for a number of […]\nfunction by competing for ATP binding in the active site.\nKinase assay system #3. KinaseProfiler™ and PhosphataseProfiler™ assay platforms (Millipore). This platform is radiometric-based (considered gold standard). It measures competition with respect to ATP for kinases and substrate protein for phosphatases. Most proteins were expressed via an insect-based system, and it evaluates a panel of 284 kinases and 20 phosphatases. There were two initial false positives, for a false positive rate of 0.7%, but both […]"}, "HSP90β": {"target": "T2, HSP90β (Homo sapiens, UniProt P08238)", "T2 construct": "made in house; host or cells: Rosetta BL-21 E. coli", "T2 sequence (P08238 whole entry)": "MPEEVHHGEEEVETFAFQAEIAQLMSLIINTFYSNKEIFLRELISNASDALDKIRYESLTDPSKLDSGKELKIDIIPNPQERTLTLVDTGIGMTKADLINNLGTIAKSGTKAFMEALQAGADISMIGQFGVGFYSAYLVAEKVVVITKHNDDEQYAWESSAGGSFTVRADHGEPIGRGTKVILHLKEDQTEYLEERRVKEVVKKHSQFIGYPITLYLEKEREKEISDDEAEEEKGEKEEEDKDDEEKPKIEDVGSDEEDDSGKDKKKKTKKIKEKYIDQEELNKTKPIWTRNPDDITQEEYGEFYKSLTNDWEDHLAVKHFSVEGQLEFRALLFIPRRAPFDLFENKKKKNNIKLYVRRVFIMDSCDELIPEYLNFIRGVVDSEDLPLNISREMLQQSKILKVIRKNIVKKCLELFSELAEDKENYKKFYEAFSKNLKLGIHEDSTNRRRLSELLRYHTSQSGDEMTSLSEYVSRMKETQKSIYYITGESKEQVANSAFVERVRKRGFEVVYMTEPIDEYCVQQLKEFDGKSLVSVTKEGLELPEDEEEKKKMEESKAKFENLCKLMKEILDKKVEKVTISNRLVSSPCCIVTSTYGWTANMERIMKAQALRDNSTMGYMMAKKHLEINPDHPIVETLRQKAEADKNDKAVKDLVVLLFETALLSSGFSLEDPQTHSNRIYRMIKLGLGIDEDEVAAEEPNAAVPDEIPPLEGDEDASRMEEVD", "test": "Biophysical binding assays and DARTS, isolated HSP90β", "conditions": "ITC, thermal shift, biolayer interferometry, dynamic light scattering, DARTS", "protocol": "as §1\nSupplementary Figure 14. […] Studies used purified […]\nrecombinant HSP90β or CDC37. Fluorescent thermal shift 5, isothermal titration calorimetry 6, […]\nevidence of KBU2046 binding to either HSP90β or CDC37 (data not shown). For DARTS assay, HSP90β or CDC37 were individually pre-incubated with KBU2046, thermolysin added, and reaction products were separated by SDS PAGE and visualized by silver stain (depicted above).\nNTco – no thermolysin control. However, when the DARTS assay was conducted with both HSP90β and CDC37 present, KBU2046 protected both proteins from degradation in a concentration-dependent manner (see manuscript Fig 5A).\n(also on this page, place not known: HSP90 Ntco 0 0.001 0.01 0.1 1.0 10 µM KBU2046, thermolysin NTco thermolysin CDC37)\n(1 picture or pasted object on this page, not shown here)"}}, "data": [{"compound": "O=C1c2ccccc2OCC1c1ccc(F)cc1", "note": "(racemic) [KBU2046, (±)-3(4-fluorophenyl)chroman-4-one]", "values": [{"measurement": "viability at 3 days, 50 µM", "setting": "[1]", "result": 99.4, "unit": "%"}, {"measurement": "IC20", "setting": "1532CPTX", "result": "> 50", "unit": "µM"}, {"measurement": "IC50", "setting": "1532CPTX", "result": "> 50", "unit": "µM"}, {"measurement": "survival", "setting": "[2]", "result": "significantly prolonged the survival"}, {"measurement": "binding to MKK4", "setting": "MKK4", "result": "did not bind to MKK4"}, {"measurement": "downstream phosphorylation of p38 MAPK and HSP27", "setting": "[3]", "result": "did not inhibit downstream phosphorylation"}, {"measurement": "inhibition of ATP binding", "setting": "200 different kinases", "result": "completely negative"}, {"measurement": "binding to HSP90β", "setting": "HSP90β", "result": "no evidence of KBU2046 binding"}]}]}
